Test [1] relates to OPM2 MM cells. The experiment in a line: MTT assay, percent of living OPM2 MM cells cultured on fibroblast cells. As to conditions: for IC50: Homo sapiens, OPM-2. Format: cell-based. As to the method: FIG. 11A-D. IC50 for OPM2 cells (MM) incubated with doxorubicin (DOX) alone or in the presence of an anti-NOTCH or anti-JAG2 antibody. OPM2 (MM) cells were cultured on fibroblasts (MRC5) In FIG. 11 A, IC50 data is shown for cells incubated with different concentrations of DOX. In FIG. 11B, IC50 data is shown for OPM2 cells on fibroblast with […] DOX, an isotype antibody or an anti-NOTCH-EC antibody. In FIG. 11C, data is shown for the effect of the anti-NOTCH antibody alone, without DOX. In FIG. 11D, IC50 values are shown for OMP2 cells incubated alone, in the presence of DOX or in the presence of DOX with an anti-JAG2 antibody (M8).
To illustrate this embodiment, the anti-NOTCH-EC antibody or the anti-JAG2 antibody was used in combination with doxorubicin (DOX). The OPM2 MM cells were cultured for 48 hours on fibroblast cells with different concentrations of DOX. […] However, when increasing concentrations of the anti-JAG2 were added, the percent of living cells was seen to decrease.

Test [2] has as its system multiple myeloma. As to conditions: cited from earlier work.
Test [3] has as its system MRC5 cell line. As to the kind of experiment: Cytokine secretion on incubation of MRC5 cell line with JAG2 binding peptide. Format: cell-based. As to conditions: MRC5, different concentrations of peptide. On the procedure: (§1) FIGS. 8A-C. Induction of the secretion of IL-6 (FIG. 8A); VEGF (FIG. 8B) and IGF-1 (FIG. 8C) by incubation of the MRC5 and RPMI8226 cell lines with a JAG2 binding peptide CDENYYSATCNKFCRPRND (SEQ ID NO:1) at the indicated concentrations.
(§2) In order to ascertain the involvement of JAG2 in the induction of the secretion of IL-6, VEGF and IGF-1, we incubated the MRC5 cell line with different concentrations of JAG2 peptide. This peptide corresponds to the binding region of JAG2 that activates NOTCH upon interaction. We also incubated the RPMI8226 cell line with this same peptide.

Test [4] has as its system RPMI8226 cell line. As to the kind of experiment: Cytokine secretion on incubation of RPMI8226 cell line with JAG2 binding peptide. Format: cell-based. As to conditions: RPMI8226 MM cell line. On the procedure: as §1, §2

Results on four molecules are retold here after US7282203B2, “Use of NOTCH pathway interfering agents for treatment of plasma cell disorders” (Health Research, Inc., priority 2003, dated 2007).

Turning to `COc1cccc2c1C(=O)c1c(O)c3c(c(O)c1C2=O)C[C@@](O)(C(=O)CO)C[C@@H]3O[C@H]1C[C@H](N)[C@H](O)[C@H](C)O1` [DOX, doxorubicin], in test [1] (DOX alone (FIG. 11D)), the “percent of living cells” value is “no effect”. Further, the IC50 is ~1000 nM in test [1] (DOX alone, 48 hours on fibroblast cells) and 100 nM in test [1] (DOX in the presence of 40 μg (27 μg/ml) anti-NOTCH EC antibody). Further, the “reduction of DOX concentration at IC50” value in test [1] (with 40 μg anti-NOTCH EC antibody versus DOX alone) is recorded as ~10 times.

Consider `N[C@@H](Cc1ccc(N(CCCl)CCCl)cc1)C(=O)O` [Melphalan], for which the “patients reaching complete remission (CR)” value in test [2] (conventional chemotherapy, mainly Melphalan) was 14%.

For `CC(C)C[C@H](NC(=O)[C@H](Cc1ccccc1)NC(=O)c1cnccn1)B(O)O` [PS341], in test [2] (available trials), the CR/PR was 47% and the “patients showing a >75% reduction of paraprotein” value is reported as 30%.

With “NH2-CDENYYSATCNKFCRPRND-OH (H-CDENYYSATCNKFCRPRND-OH; cysteine pairing not given here) [JAG2 binding peptide]”, in test [3], the “secretion of IGF-1” value is given as “activated”, the “secretion of IL-6” value is “activated” and the “secretion of VEGF” value is “activated”. In test [4], the “secretion of IGF-1” value was “no stimulation”, the “secretion of IL-6” value is reported as “no stimulation” and the “secretion of VEGF” value was “no stimulation”.
